In test [1] the test system is IL-1 (Interleukin-1) induced MMP-1 (Matrix Metalloproteinase-1) production in SW1353 human chondrosarcoma cells. Nature of the test: glucocorticoid inhibition of IL-1 induced MMP-1 production in human chondrosarcoma cells. The format is cell-based. To be noted: 20 ng/ml IL-1 beta, 72 hours after IL-1 addition, MMP-1 ELISA, read-out: IC50, inhibitor of MMP1 expression. The procedure: (§1) This assay, the glucocorticoid inhibition of IL-1 (Interleukin-1) induced MMP-1 (Matrix Metalloproteinase-1) and IL-8 (Interleukin-8) production in human chondrosarcoma cells, is conducted as follows: SW1353 human chondrosarcoma cells (obtained from ATCC) from passage 12 through passage 19 are used in a 96 well format assay. Cells are plated at confluence into 96 well plates in DMEM (Dulbecco's Modified Eagle Medium) with 10% fetal bovine serum and incubated at 37° C., 5% CO2. After 24 hours, serum containing media is removed and replaced with 200 ul/well DMEM containing 1 mg/L insulin, 2 g/L lactalbumin hydrosylate, and 0.5 mg/L ascorbic acid and returned to incubation at 37° C., 5% CO2. […] IL-8 production is assessed using the Quantikine human IL-8 ELISA kit from R&D Systems (D8050) on samples diluted 60. fold in RD5P Calibrator Diluent, following the manufacturer's protocol. The percent of the average IL-1 control is determined for the average of each of the triplicate samples following subtraction of the average signal from untreated cells. IC50's are determined from log linear plots of the percent of control versus the concentration of inhibitor. […] MMP-1 production is assessed via the Bio-Trak MMP-1 ELISA kit from Amersham (RPN2610) on 100 ul of neat sample following the manufacturer's protocol. […]
A general note: In an ELISA, binding on a coated surface is turned into a signal by an enzyme label.

Test [2] relates to IL-1 (Interleukin-1) induced IL-8 (Interleukin-8) production in SW1353 human chondrosarcoma cells. Nature of the test: glucocorticoid inhibition of IL-1 induced IL-8 production in human chondrosarcoma cells. The format is cell-based. The settings on record: 20 ng/ml IL-1 beta, 24 hours after addition of IL-1, IL-8 ELISA, read-out: IC50, inhibitor of IL-8 expression. How it is done:
as §1

What is called IC50 is the concentration at which inhibition is half-maximal. Turning to `C[C@@H]1C[C@H]2[C@@H]3CCC4=CC(=O)C=C[C@]4(C)[C@@]3(F)[C@@H](O)C[C@]2(C)[C@@]1(O)C(=O)CO` [Dexamethasone, (11β,16α)-9-fluoro-11,17,21-trihydroxy-16-methylpregna-1,4-diene-3,20-dione], the IC50 in test [1] and in test [2] was 5 nM in each case.

The values are drawn from patent US7166593B2, “Glucocorticoid receptor modulators” (Pfizer, Inc., priority 2000, dated 2007).
